Values after ≈ are worked out from the molar mass of the structure shown. Read-outs that look alike come from different tables or passages of the source.
What was measured:
[1] = Toxicity in cultures of 2.2.15 cells, neutral red dye uptake; type: cell-based; conditions: human, 50 % inhibit of cell proliferation, read-out: cytotoxic concentration (CC 50)
Experimental: (§1) The protocol for essaying anti-HBV compounds in cultures of 2.2.15 cells can be briefly summarized as follows (Korba and Milman, 1991, Antiviral Res. 217:217) : • * Chronically HBV-producing human liver cells (Acs, et al, 1987, PNAS 84:4641) are seeded into 24 well tissue culture plates and grown to confluence. • * Test compounds are then added daily for a continuous 9 day period. Culture medium (changed daily during the treatment period) is collected and stored for analysis of extracellular (virion) HBV DNA after 0,3,6 and 9 days of treatment. • * Treated cells are lysed 24 hours following day 9 of treatment for the analysis of intracellular HBV genomic forms. • * HBV DNA is then analyzed in a quantitative and qualitative manner for overall levels of HBV DNA (both extracellular and intracellular DNA) and the relative rate of HBV replication (intracellular DNA). The protocol for determining toxicity of compounds in cultures of 2.2.15 cells can be briefly summarized as follows (Korba and Gerin, submited for publication) : • * 2.2.15 cells were grown to confluence in 96 well fat-bottomed tissue culture plates and treated with compounds (in 0.2 ml culture medium/well) as described above. Four concentrations of each compound were assayed, each in triplicate cultures, 3 to 10-fold steps. • * Untreated control cultures were maintained on each 96 well plate.

[2] = system: HBV; assay: Antiviral activity against HBV replication in cultures of 2.2.15 cells; type: cell-based; conditions: for selective index SI: HBV, CC 50/EC 50; for EC50: Hepatitis B virus, 216 h, read-out: effective concentration (EC 50)
Experimental: as §1

[3] = system: Trichomonas vaginalis; assay: In vitro studies against Trichomonas vaginalis; type: cell-based; conditions: for MIC: in vitro, Trichomonas vaginalis, read-out: Minimum Inhibitory Concentration
[4] = system: Trichomonas vaginalis; assay: Activity of aqueous compositions on protozoa; conditions: aqueous composition (100 g) containing 10 g active agent
Description: (§2) Aqueous compositions (100 g) containing 10 g of an active agent have been prepared.

[5] = system: Taenia saginata; assay: Activity of aqueous compositions on helminths; conditions: aqueous composition (100 g) containing 10 g active agent
Description: as §2

[6] = system: Candida Albicans; assay: Activity of aqueous compositions on fungus; conditions: aqueous composition (100 g) containing 10 g active agent
Description: as §2

[7] = system: Balancidium coli; assay: Activity of aqueous compositions on protozoa; conditions: aqueous composition (100 g) containing 10 g active agent
Description: as §2

[8] = system: Cryptosporidium parvum; assay: Activity of aqueous compositions on protozoa; conditions: aqueous composition (100 g) containing 10 g active agent
Description: as §2

[9] = system: Taenia solium; assay: Activity of aqueous compositions on helminths; conditions: aqueous composition (100 g) containing 10 g active agent
Description: as §2

[10] = system: Clostridum species; assay: Activity of aqueous compositions on anaerobic bacteria; conditions: aqueous composition (100 g) containing 10 g active agent
Description: as §2

[11] = system: Hymenolepis nana; assay: Activity of aqueous compositions on helminths; conditions: aqueous composition (100 g) containing 10 g active agent
Description: as §2

[12] = system: Encamoeba histolytica; assay: Activity of aqueous compositions on protozoa; conditions: aqueous composition (100 g) containing 10 g active agent
Description: as §2

[13] = system: Endolimax nana; assay: Activity of aqueous compositions on protozoa; conditions: aqueous composition (100 g) containing 10 g active agent
Description: as §2

[14] = system: Entamoeba coli; assay: Activity of aqueous compositions on protozoa; conditions: aqueous composition (100 g) containing 10 g active agent
Description: as §2

[15] = system: Bladtocystis hominis; assay: Activity of aqueous compositions on protozoa; conditions: aqueous composition (100 g) containing 10 g active agent
Description: as §2

[16] = system: Enterocytozoon bieneusi; assay: Activity of aqueous compositions on protozoa; conditions: aqueous composition (100 g) containing 10 g active agent
Description: as §2

[17] = system: Strongyloïdes stercoralis; assay: Activity of aqueous compositions on helminths; conditions: aqueous composition (100 g) containing 10 g active agent
Description: as §2

[18] = system: Peptostreptococcus SPP; assay: Activity of aqueous compositions on anaerobic bacteria; conditions: aqueous composition (100 g) containing 10 g active agent
Description: as §2

[19] = system: Encamoeba dispar; assay: Activity of aqueous compositions on protozoa; conditions: aqueous composition (100 g) containing 10 g active agent
Description: as §2

[20] = system: Escherichia coli; assay: Activity of aqueous compositions on aerobic bacteria; conditions: aqueous composition (100 g) containing 10 g active agent
Description: as §2

[21] = system: Giarda lamblia; assay: Activity of aqueous compositions on protozoa; conditions: aqueous composition (100 g) containing 10 g active agent
Description: as §2

[22] = system: Fusobacterium SPP; assay: Activity of aqueous compositions on anaerobic bacteria; conditions: aqueous composition (100 g) containing 10 g active agent
Description: as §2

[23] = system: Protens vulgaris; assay: Activity of aqueous compositions on aerobic bacteria; conditions: aqueous composition (100 g) containing 10 g active agent
Description: as §2

[24] = system: Peptococcus species; assay: Activity of aqueous compositions on anaerobic bacteria; conditions: aqueous composition (100 g) containing 10 g active agent
Description: as §2

[25] = system: Diencamoeba fragilis; assay: Activity of aqueous compositions on protozoa; conditions: aqueous composition (100 g) containing 10 g active agent
Description: as §2

[26] = system: Trichomonas intestinalis; assay: Activity of aqueous compositions on protozoa; conditions: aqueous composition (100 g) containing 10 g active agent
Description: as §2

[27] = system: Staphylococcus aureus; assay: Activity of aqueous compositions on aerobic bacteria; conditions: aqueous composition (100 g) containing 10 g active agent
Description: as §2

[28] = system: Bacceroides species; assay: Activity of aqueous compositions on anaerobic bacteria; conditions: aqueous composition (100 g) containing 10 g active agent
Description: as §2

[29] = system: Septata intestinalis; assay: Activity of aqueous compositions on protozoa; conditions: aqueous composition (100 g) containing 10 g active agent
Description: as §2

[30] = system: Microsporum audovini; assay: Activity of aqueous compositions on fungus; conditions: aqueous composition (100 g) containing 10 g active agent
Description: as §2

[31] = system: Isospora belli; assay: Activity of aqueous compositions on protozoa; conditions: aqueous composition (100 g) containing 10 g active agent
Description: as §2

[32] = system: Epidermophyton flocosum; assay: Activity of aqueous compositions on fungus; conditions: aqueous composition (100 g) containing 10 g active agent
Description: as §2

[33] = system: Trychophyton Mentagrophytes; assay: Activity of aqueous compositions on fungus; conditions: aqueous composition (100 g) containing 10 g active agent
Description: as §2

[34] = system: Ascaris lumbricoides; assay: Activity of aqueous compositions on helminths; conditions: aqueous composition (100 g) containing 10 g active agent
Description: as §2

[35] = system: Anycylosloma duodenale; assay: Activity of aqueous compositions on helminths; conditions: aqueous composition (100 g) containing 10 g active agent
Description: as §2

[36] = system: Enterobius vermicularis; assay: Activity of aqueous compositions on helminths; conditions: aqueous composition (100 g) containing 10 g active agent
Description: as §2

[37] = system: Necator americanus; assay: Activity of aqueous compositions on helminths; conditions: aqueous composition (100 g) containing 10 g active agent
Description: as §2

[38] = system: Trichuris trichiura; assay: Activity of aqueous compositions on helminths; conditions: aqueous composition (100 g) containing 10 g active agent
Description: as §2

## Nc1ccn([C@H]2CC[C@@H](CO)O2)c(=O)n1 [Zalcitabine]
[1]
  CC50 at 9 days: 261 ± 24 µg/mL (≈ 1240 µM)
[2]
  selective index SI: about 145
[2]; HBV replication in 2.2.15 cells, 9 day treatment
  EC50: 1.8 ± 0.2 µg/mL (≈ 8.52 µM)

## CC(=O)Oc1ccccc1C(=O)Nc1ncc([N+](=O)[O-])s1 [Compound B, 2-(acetolyloxy)-N-(5-nitro 2-thiazolyl) benzamide]
[3]
  MIC: 0.5 to 1.25 µg/mL (≈ 1.63 to 4.07 µM)

## CCCSc1ccc2nc(NC(=O)OC)[nH]c2c1 [Compound P3, Albendazole]
[4]
  ACTIVITY: No
[5]
  ACTIVITY: No
[6]
  ACTIVITY: No
[7]
  ACTIVITY: No
[8]
  ACTIVITY: No
[9]
  ACTIVITY: No
[10]
  ACTIVITY: No
[11]
  ACTIVITY: No
[12]
  ACTIVITY: No
[13]
  ACTIVITY: No
[14]
  ACTIVITY: No
[15]
  ACTIVITY: No
[16]
  ACTIVITY: No
[17]
  ACTIVITY: No
[18]
  ACTIVITY: No
[19]
  ACTIVITY: No
[20]
  ACTIVITY: No
[21]
  ACTIVITY: No
[22]
  ACTIVITY: No
[23]
  ACTIVITY: No
[24]
  ACTIVITY: No
[25]
  ACTIVITY: No
[26]
  ACTIVITY: No
[27]
  ACTIVITY: No
[28]
  ACTIVITY: No
[29]
  ACTIVITY: No

## COC(=O)Nc1nc2ccc(C(=O)c3ccccc3)cc2[nH]1 [Compound P4, Mebendazole]
[30]
  ACTIVITY: No
[4]
  ACTIVITY: No
[5]
  ACTIVITY: No
[6]
  ACTIVITY: No
[7]
  ACTIVITY: No
[31]
  ACTIVITY: No
[8]
  ACTIVITY: No
[9]
  ACTIVITY: No
[10]
  ACTIVITY: No
[11]
  ACTIVITY: No
[12]
  ACTIVITY: No
[13]
  ACTIVITY: No
[14]
  ACTIVITY: No
[15]
  ACTIVITY: No
[16]
  ACTIVITY: No
[17]
  ACTIVITY: No
[18]
  ACTIVITY: No
[19]
  ACTIVITY: No
[20]
  ACTIVITY: No
[32]
  ACTIVITY: No
[21]
  ACTIVITY: No
[22]
  ACTIVITY: No
[23]
  ACTIVITY: No
[24]
  ACTIVITY: No
[25]
  ACTIVITY: No
[26]
  ACTIVITY: No
[27]
  ACTIVITY: No
[28]
  ACTIVITY: No
[33]
  ACTIVITY: No
[29]
  ACTIVITY: No

## Cc1ncc([N+](=O)[O-])n1CCO [Compound P5, Metronidazole]
[30]
  ACTIVITY: No
[34]
  ACTIVITY: No
[5]
  ACTIVITY: No
[6]
  ACTIVITY: No
[35]
  ACTIVITY: No
[8]
  ACTIVITY: No
[9]
  ACTIVITY: No
[11]
  ACTIVITY: No
[15]
  ACTIVITY: No
[16]
  ACTIVITY: No
[17]
  ACTIVITY: No
[20]
  ACTIVITY: No
[32]
  ACTIVITY: No
[23]
  ACTIVITY: No
[36]
  ACTIVITY: No
[27]
  ACTIVITY: No
[33]
  ACTIVITY: No
[37]
  ACTIVITY: No
[29]
  ACTIVITY: No
[38]
  ACTIVITY: No

## O=C(Nc1ncc([N+](=O)[O-])s1)c1ccccc1O [Compound A, 2-(hydroxy)-N-(5-nitro-2-thiazolyl) benzamide]
[3]; in vitro studies
  onset of action: substantially immediate action
[3]
  MIC: 1 to 1.25 µg/mL (≈ 3.77 to 4.71 µM)
[1]
  CC50 at 9 days: > 1000 µg/mL
[2]
  selective index SI: higher than 500
  EC50: 1.8 ± 0.1 µg/mL (≈ 6.79 µM)
